Data published in ChEMBL document CHEMBL4346726 (Bioorg Med Chem Lett, 2019).

How the values were obtained:
[1] = Oral bioavailability in dog at 1 mg/kg; type: ADME, […], Canis lupus familiaris; details: in vivo
[2] = Fraction absorbed in rat at 3 mg/kg, po; type: ADME, organism-based; details: in vivo, read-out: Fabs
[3] = system: Hepatitis C virus; assay: Antiviral activity against HCV genotype 2a in RLuc cells assessed as reduction in viral replication by luciferase reporter gene assay; type: functional, organism-based, Hepacivirus hominis; details: subtype 2a
[4] = Ratio of drug level in dog liver to plasma at 0.5 mg/kg, iv or 1 mg/kg, po measured at 2 hr; type: ADME, […], Canis lupus familiaris
[5] = Protein binding in cynomolgus monkey plasma; type: ADME, Macaca fascicularis; details: read-out: PPB
[6] = system: Hepatitis C virus; assay: Antiviral activity against HCV genotype 1a harboring R155K mutant in RLuc cells assessed as reduction in viral replication by luciferase reporter gene assay; type: functional, organism-based, Hepacivirus hominis; details: subtype 1a
[7] = Oral bioavailability in rat at 3 mg/kg; type: ADME, organism-based; details: in vivo
[8] = system: Hepatitis C virus; assay: Antiviral activity against HCV genotype 3a in RLuc cells assessed as reduction in viral replication by luciferase reporter gene assay; type: functional, organism-based, Hepacivirus hominis, subtype 3a; details: Hepatitis C virus, subtype 3a
[9] = Fraction unbound in human plasma; type: ADME, cell-free
[10] = Drug uptake in human hepatocytes; type: ADME, cell-based, Hepatocyte; details: TDE = time-dependent effect
[11] = Protein binding in rat plasma; type: ADME; details: read-out: PPB
[12] = Fraction unbound in rat plasma; type: ADME, cell-free
[13] = Oral bioavailability in cynomolgus monkey at 1 mg/kg; type: ADME, organism-based, Macaca fascicularis; details: in vivo
[14] = Volume of distribution at steady state in rat at 1 mg/kg, iv or 3 mg/kg, po; type: ADME, organism-based; details: in vivo, read-out: Vdss
[15] = Half life in cynomolgus monkey at 0.5 mg/kg, iv or 1 mg/kg, po; type: ADME, organism-based, Macaca fascicularis; details: in vivo
[16] = Half life in dog at 0.5 mg/kg, iv or 1 mg/kg, po; type: ADME, […], Canis lupus familiaris; details: in vivo
[17] = Steady state half life in human at 30 to 300 mg administered once daily for 7 days measured under phase 1 clinical trials; type: ADME; details: in vivo, read-out: t1/2ss
[18] = system: Hepatitis C virus; assay: Antiviral activity against HCV genotype 1a in RLuc cells assessed as reduction in viral replication by luciferase reporter gene assay; type: functional, organism-based, Hepacivirus hominis; details: subtype 1a
[19] = Protein binding in dog plasma; type: ADME, Canis lupus familiaris; details: read-out: PPB
[20] = system: Hepatitis C virus; assay: Antiviral activity against HCV genotype 1b in RLuc cells assessed as reduction in viral replication by luciferase reporter gene assay; type: functional, organism-based, Hepacivirus hominis; details: subtype 1b
[21] = system: Hepatitis C virus; assay: Antiviral activity against HCV genotype 1a harboring A156T mutant in RLuc cells assessed as reduction in viral replication by luciferase reporter gene assay; type: functional, organism-based, Hepacivirus hominis; details: subtype 1a
[22] = Fraction absorbed in dog at 1 mg/kg, po; type: ADME, […], Canis lupus familiaris; details: in vivo, read-out: Fabs
[23] = Drug uptake in organic-anion-transporting polypeptide over expressing CHO cells; type: ADME, cell-based, Cricetulus griseus; details: chinese hamster, TDE = time-dependent effect
[24] = Fraction unbound in dog plasma; type: ADME, cell-free, Canis lupus familiaris
[25] = Inhibition of HCV genotype 3a NS3/4a protease by enzymatic assay; design: species or system Hepatitis C virus subtype 3a
[26] = Clearance in rat at 1 mg/kg, iv or 3 mg/kg, po; type: ADME, organism-based; details: in vivo
[27] = system: Hepatitis C virus; assay: Antiviral activity against HCV genotype 1b harboring A156T mutant in RLuc cells assessed as reduction in viral replication by luciferase reporter gene assay; type: functional, organism-based, Hepacivirus hominis; details: subtype 1b
[28] = Volume of distribution at steady state in dog at 0.5 mg/kg, iv or 1 mg/kg, po; type: ADME, […], Canis lupus familiaris; details: in vivo, read-out: Vdss
[29] = system: Hepatitis C virus; assay: Antiviral activity against HCV genotype 5a in RLuc cells assessed as reduction in viral replication by luciferase reporter gene assay; type: functional, organism-based, Hepacivirus hominis; details: subtype 5a
[30] = Fraction unbound in cynomolgus monkey plasma; type: ADME, cell-free, Macaca fascicularis
[31] = system: Hepatitis C virus; assay: Antiviral activity against HCV genotype 2b in RLuc cells assessed as reduction in viral replication by luciferase reporter gene assay; type: functional, organism-based, Hepacivirus hominis; details: subtype 2b
[32] = Ratio of drug level in rat liver to plasma at 1 mg/kg, iv or 3 mg/kg, po measured at 2 hr; type: ADME, organism-based
[33] = system: Hepatitis C virus; assay: Antiviral activity against HCV genotype 4a in RLuc cells assessed as reduction in viral replication by luciferase reporter gene assay; type: functional, organism-based, Hepacivirus hominis; details: subtype 4a
[34] = system: Hepatitis C virus; assay: Antiviral activity against HCV genotype 6a in RLuc cells assessed as reduction in viral replication by luciferase reporter gene assay; type: functional, organism-based, Hepacivirus hominis; details: subtype 6a
[35] = Half life in rat at 1 mg/kg, iv or 3 mg/kg, po; type: ADME, organism-based; details: in vivo
[36] = Fraction absorbed in cynomolgus monkey at 1 mg/kg, po; type: ADME, organism-based, Macaca fascicularis; details: in vivo, read-out: Fabs
[37] = system: Hepatitis C virus; assay: Antiviral activity against HCV genotype 1b harboring D168E mutant in RLuc cells assessed as reduction in viral replication by luciferase reporter gene assay; type: functional, organism-based, Hepacivirus hominis; details: subtype 1b
[38] = Clearance in dog at 0.5 mg/kg, iv or 1 mg/kg, po; type: ADME, […], Canis lupus familiaris; details: in vivo
[39] = Clearance in cynomolgus monkey at 0.5 mg/kg, iv or 1 mg/kg, po; type: ADME, organism-based, Macaca fascicularis; details: in vivo
[40] = Protein binding in human plasma; type: ADME; details: read-out: PPB
[41] = Ratio of drug level in cynomolgus monkey liver to plasma at 0.5 mg/kg, iv or 1 mg/kg, po measured at 2 hr; type: ADME, organism-based, Macaca fascicularis
[42] = Selectivity ratio of EC50 for antiviral activity against HCV genotype 3a to EC50 for antiviral activity against HCV genotype 1a; type: functional
[43] = system: Hepacivirus hominis; assay: Binding affinity to HCV NS3/4a protease assessed as compound-protein adduct formation per mg protein using radiolabelled compound
[44] = system: Hepatitis C virus; assay: Antiviral activity against HCV genotype 1a harboring Q80K mutant in RLuc cells assessed as reduction in viral replication by luciferase reporter gene assay; type: functional, organism-based, Hepacivirus hominis; details: subtype 1a
[45] = Volume of distribution at steady state in cynomolgus monkey at 0.5 mg/kg, iv or 1 mg/kg, po; type: ADME, organism-based, Macaca fascicularis; details: in vivo, read-out: Vdss

CC[C@@H]1[C@@H]2CN(C(=O)[C@H](C(C)(C)C)NC(=O)O[C@@H]3C[C@H]3CCCCC(F)(F)c3nc4ccc(OC)cc4nc3O2)[C@@H]1C(=O)N[C@]1(C(=O)NS(=O)(=O)C2(C)CC2)C[C@H]1C(F)F
bioavailability [1]: 27% | Fa [2]: 100% | EC50 [3]: 3.7 nM | Kp at 2 h [4]: 55 | fraction unbound [5]: < 0.01 | EC50 [6]: 2.7 nM | bioavailability [7]: 83% | EC50 [8]: 6.1 nM | Fu [9]: 0.46% | Drug uptake [10]: Tde | fraction unbound [11]: < 0.01 | Fu [12]: 0.42% | bioavailability [13]: 10% | Vd [14]: 0.84 L/kg | half-life [15]: 2.1 h | half-life [16]: 4.2 h | half-life [17]: 28 to 41 h | EC50 [18]: 3.9 nM | fraction unbound [19]: < 0.01 | EC50 [20]: 3.3 nM | EC50 [21]: > 500 nM | Fa [22]: 30% | Drug uptake [23]: Tde | Fu [24]: 0.28% | Ki [25]: 0.063 nM | clearance [26]: 13.7 mL/min/kg | EC50 [27]: > 500 nM | Vd [28]: 0.94 L/kg | EC50 [29]: 1.9 nM | Fu [30]: 0.91% | EC50 [31]: 6.6 nM | Kp at 2 h [32]: > 500 | EC50 [33]: 4.9 nM | EC50 [34]: 1.5 nM | half-life [35]: 0.93 h | Fa [36]: 23% | EC50 [37]: 4 nM | clearance [38]: 3.17 mL/min/kg | clearance [39]: 14.8 mL/min/kg | fraction unbound [40]: < 0.01 | Kp at 2 h [41]: 100 | Ratio EC50 [42]: <2 | PB [43]: < 1 pmol/mg | EC50 [44]: 3.1 nM | Vd [45]: 0.8 L/kg
